Assay results reported in patent US8497278B2, “Imidazo[1,2-a]pyridine compounds” (priority 2008, dated 2013).

Key:
[1] = tested on: central benzodiazepine receptors; assay: Central benzodiazepine receptor binding (test of Speth et al.); conditions: 1000 nM of the compound
Outline: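 Radioligand binding by the Speth et al. method. Specific binding is total minus nonspecific binding, the latter measured with excess unlabelled ligand. Compounds screened at 1.0E-09, 1.0E-07 and 1.0E-05 M in single determination; values given as percent inhibition at 1000 nM compound.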

[2] = molecular target: T1, α1 subtype containing GABA-A receptors (Homo sapiens, UniProt P14867+P18507); assay: Two-electrode voltage clamp electrophysiology in Xenopus oocytes, potentiation of GABA EC20 response, α1; assay type: cell-based; conditions: 100 nM compound; for activation at 0.1 µM: read-out: Percentage of potentiation alpha1
T1 construct: expressed in transfected cells; host or cells: Xenopus laevis oocytes, cRNA injected
Procedure: (§1) Electrophysiology protocol: Oocytes were prepared from adult female Xenopus laevis frogs. cRNA encoding human α1, α2, α3, α5, β3 and γ2L GABAA receptor subunits was injected into the cytoplasm of stage 5 or 6 oocytes using the Robocyte Robot (Multi Channel Systems, Reutlingen, Germany). Two-electrode voltage clamp recordings were made in 96-well plates using the Robocyte Robot. Oocytes were impaled using recording heads with two glass electrodes containing 1.5 M potassium acetate and 0.5 M KCl and held at a membrane potential of −80 mV. Oocytes were continually perfused with a ND96 solution (96 mM NaCl, 2 mM KCl, 0.1 mM CaCl2, and 5 mM HEPES, pH 7.5) using a Gilson 222 XL Liquid Handler and Gilson Minipuls 3 Peristaltic Pump (Gilson Medical Electronics, Middleton, Wis., USA). The protocol consisted of three 20-s applications of GABA that gave a 20% of the maximum response (EC20: 60 μM) to allow for headroom to determine a baseline GABA response. To assess the potentiation, oocytes were first exposed to a single 1 μM chlordiazepoxide (CDP) as a potentiation standard. Oocytes with insufficient expression levels (currents below threshold) or insufficient γ2L subunit incorporation (judged by rapid desensitization upon GABA application, or by insufficient potentiation by CDP) were not included in analysis. Following this control application, a given oocyte was exposed to test compounds at 100 nM concentrations. Only one concentration of one compound was tested per oocyte. […] One skilled in the art will recognize that subtypes contribute to the effects of GABA-A modulators. Such that compounds favoring different subtypes can have different therapeutic effects. The magnitude of modulation, for example, partial modulators can influence the effects in vivo. “++” indicates a greater modulation that “+” so that at any given subtype “++” inducates a greater amount of modulation for that subtype. In some embodiments, modulation favoring alpha 1 relative to alpha2 and/or alpha 3 can have sedative hypnotic effects. In other embodiments, compounds with reduced selectivity of alpha 1 can express anxiolytic effects with less sedation. Compounds with selectivity for alpha 5 can have memory/cognition enhancing effects.

[3] = molecular target: T2, α2 subtype containing GABA-A receptors (Homo sapiens, UniProt P18507+P47869); assay: Two-electrode voltage clamp electrophysiology in Xenopus oocytes, potentiation of GABA EC20 response, α2; assay type: cell-based; conditions: 100 nM compound; for activation at 0.1 µM: read-out: Percentage of potentiation alpha2
T2 construct: expressed in transfected cells; host or cells: Xenopus laevis oocytes, cRNA injected
Procedure: as §1

T1 sequence (P14867 28-456): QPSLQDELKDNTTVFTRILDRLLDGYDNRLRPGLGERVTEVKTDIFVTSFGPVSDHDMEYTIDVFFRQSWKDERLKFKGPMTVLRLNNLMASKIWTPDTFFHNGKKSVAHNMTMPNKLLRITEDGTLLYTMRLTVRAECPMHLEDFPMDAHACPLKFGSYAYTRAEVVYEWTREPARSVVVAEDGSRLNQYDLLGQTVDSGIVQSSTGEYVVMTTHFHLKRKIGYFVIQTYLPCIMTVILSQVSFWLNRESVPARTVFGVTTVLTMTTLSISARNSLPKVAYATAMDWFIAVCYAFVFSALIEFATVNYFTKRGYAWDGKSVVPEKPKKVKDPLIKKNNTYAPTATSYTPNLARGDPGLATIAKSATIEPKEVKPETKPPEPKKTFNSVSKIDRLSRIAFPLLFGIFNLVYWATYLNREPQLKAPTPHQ
T1 sequence (P28472 26-473 partner): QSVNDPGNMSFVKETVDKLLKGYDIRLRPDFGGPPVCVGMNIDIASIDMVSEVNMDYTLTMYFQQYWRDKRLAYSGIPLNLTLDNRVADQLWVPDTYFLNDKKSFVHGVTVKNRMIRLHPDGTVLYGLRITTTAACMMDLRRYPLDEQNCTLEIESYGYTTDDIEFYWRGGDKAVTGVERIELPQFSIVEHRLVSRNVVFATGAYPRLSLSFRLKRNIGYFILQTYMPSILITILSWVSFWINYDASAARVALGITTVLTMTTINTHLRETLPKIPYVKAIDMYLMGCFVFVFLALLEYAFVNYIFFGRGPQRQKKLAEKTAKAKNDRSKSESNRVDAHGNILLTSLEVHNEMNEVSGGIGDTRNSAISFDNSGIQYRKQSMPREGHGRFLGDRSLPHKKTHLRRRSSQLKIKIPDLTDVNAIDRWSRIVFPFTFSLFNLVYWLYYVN
T1 sequence (P18507 40-475): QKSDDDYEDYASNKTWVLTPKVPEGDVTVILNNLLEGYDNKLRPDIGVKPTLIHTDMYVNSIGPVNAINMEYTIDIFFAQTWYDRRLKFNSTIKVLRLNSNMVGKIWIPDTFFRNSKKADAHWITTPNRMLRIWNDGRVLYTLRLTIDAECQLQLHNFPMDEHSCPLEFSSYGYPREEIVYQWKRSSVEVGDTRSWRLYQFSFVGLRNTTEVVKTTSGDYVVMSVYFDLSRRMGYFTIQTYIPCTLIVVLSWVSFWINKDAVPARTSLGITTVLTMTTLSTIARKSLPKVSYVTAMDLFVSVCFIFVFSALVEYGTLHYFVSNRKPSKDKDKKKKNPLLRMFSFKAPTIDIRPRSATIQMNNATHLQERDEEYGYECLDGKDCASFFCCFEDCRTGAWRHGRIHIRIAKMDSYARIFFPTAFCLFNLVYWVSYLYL
T2 sequence (P47869 29-451): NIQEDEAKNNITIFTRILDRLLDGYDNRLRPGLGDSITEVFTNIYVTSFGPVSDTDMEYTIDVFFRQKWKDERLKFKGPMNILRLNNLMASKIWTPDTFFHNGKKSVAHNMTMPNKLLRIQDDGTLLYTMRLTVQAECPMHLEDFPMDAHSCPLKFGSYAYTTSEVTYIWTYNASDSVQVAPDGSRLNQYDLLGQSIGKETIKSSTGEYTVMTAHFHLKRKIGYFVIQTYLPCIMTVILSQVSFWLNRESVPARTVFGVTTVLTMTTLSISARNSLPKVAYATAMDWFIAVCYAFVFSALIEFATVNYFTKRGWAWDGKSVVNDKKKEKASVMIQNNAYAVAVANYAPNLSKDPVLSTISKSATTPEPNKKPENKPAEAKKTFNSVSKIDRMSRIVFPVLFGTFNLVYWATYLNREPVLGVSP
T2 sequence (P28472 26-473 partner): as the sequence (P28472 26-473 partner) above
T2 sequence (P18507 40-475): as the sequence (P18507 40-475) above

SMILES	% Inhibition at 1000 nM for CBZD [1]	activation at 0.1 µM [2]	also measured
Clc1ccc(-c2nc3ccc(Cl)cn3c2Cc2cn[nH]n2)cc1 [Compound 227, 3-((2H-1,2,3-triazol-4-yl)methyl)-6-chloro-2-(4-chlorophenyl)imidazo[1,2-a]pyridine]	++ (percentage of inhibition of central BZD site binding is greater than 80% in the presence of 1000 nM of the compound)	≥ 50%	–
Nc1ccn(Cc2c(-c3ccc(Cl)cc3)nc3ccccn23)c(=O)n1 [Compound 106, 4-amino-1-((2-(4-chlorophenyl)imidazo[1,2-a]pyridin-3-yl)methyl)pyrimidin-2(1H)-one]	–	10 to 50%	activation at 0.1 µM [3]: 10 to 50%
CNC(=O)c1nc(Cc2c(-c3ccc(F)cc3)nc3ccc(Cl)cn23)no1 [Compound 218, 3-((2-(4-fluorophenyl)-6-chloroimidazo[1,2-a]pyridin-3-yl)methyl)-1,2,4-oxadiazole-5-N-methyl-carboxamide]	–	–	Percentage of potentiation alpha1 [2]: + (percentage of potentiation is greater than or equal to 10% but less than 50% in the presence of 100 nM of the compound); Percentage of potentiation alpha2 [3]: ++ (percentage of potentiation is greater than or equal to 50% in the presence of 100 nM of the compound)
CN(O)C(=O)c1nc(Cc2c(-c3ccc(F)cc3)nc3ccc(F)cn23)no1 [Compound 225, 3-((6-fluoro-2-(4-fluorophenyl)imidazo-[1,2-a]pyridin-3-yl)methyl)-N-hydroxy-N-methyl-1,2,4-oxadiazole-5-carboxamide]	–	≤ -10%	activation at 0.1 µM [3]: 10 to 50%
CN(C)c1ccn(Cc2c(-c3ccc(Cl)cc3)nc3ccccn23)c(=O)n1 [Compound 135, 1-((2-(4-chlorophenyl)imidazo[1,2-a]pyridin-3-yl)methyl)-4-(dimethylamino)pyrimidin-2(1H)-one]	++ (percentage of inhibition of central BZD site binding is greater than 80% in the presence of 1000 nM of the compound)	–	activation at 0.1 µM [3]: ≥ 50%
CNC(=O)c1ncn(Cc2c(-c3ccc(Cl)cc3)nc3ccccn23)n1 [Compound 73, 1-((2-(4-chlorophenyl)imidazo[1,2-a]pyridin-3-yl)methyl)-N-methyl-1H-1,2,4-triazole-3-carboxamide]	–	10 to 50%	activation at 0.1 µM [3]: 10 to 50%
Cc1ccc(-c2nc3ccc(C)cn3c2CNc2nc(C)cc(Cl)n2)cc1 [Compound 147, 4-chloro-6-methyl-N-((6-methyl-2-p-tolylimidazo[1,2-a]pyridin-3-yl)methyl)pyrimidin-2-amine]	++ (percentage of inhibition of central BZD site binding is greater than 80% in the presence of 1000 nM of the compound)	≥ 50%	–
Cc1cc(Cl)nc(NCc2c(-c3ccc(F)cc3)nc3ccc(Cl)cn23)n1 [Compound 162, 4-chloro-N-((6-chloro-2-(4-fluorophenyl)imidazo[1,2-a]pyridin-3-yl)methyl)-6-methylpyrimidin-2-amine]	++ (percentage of inhibition of central BZD site binding is greater than 80% in the presence of 1000 nM of the compound)	10 to 50%	–
O=c1[nH]c(Cc2c(-c3ccc(F)cc3)nc3ccc(F)cn23)no1 [Compound 236, 3-((6-fluoro-2-(4-fluorophenyl)imidazo[1,2-a]pyridin-3-yl)methyl)-1,2,4-oxadiazol-5(4H)-one]	++ (percentage of inhibition of central BZD site binding is greater than 80% in the presence of 1000 nM of the compound)	–	–
Cc1ccc(-c2nc3ccc(C)cn3c2CN2CCN(C)C2=O)cc1 [Compound 92, 1-methyl-3-((6-methyl-2-p-tolylH-imidazo[1,2-a]pyridin-3-yl)methyl)imidazolidin-2-one]	++ (percentage of inhibition of central BZD site binding is greater than 80% in the presence of 1000 nM of the compound)	–	–
Cc1ccc(-c2nc3c(Cl)cc(Cl)cn3c2Cn2cccn2)cc1 [Compound 65, 3-((1H-pyrazol-1-yl)methyl)-6,8-dichloro-2-p-tolylimidazo[1,2-a]pyridine]	++ (percentage of inhibition of central BZD site binding is greater than 80% in the presence of 1000 nM of the compound)	–	–
Cc1ccc(-c2nc3ccc(C)cn3c2CSc2nc(C)cc(C)n2)cc1 [Compound 181, 3-((4,6-dimethylpyrimidin-2-ylthio)methyl)-6-methyl-2-p-tolylH-imidazo[1,2-a]pyridine]	++ (percentage of inhibition of central BZD site binding is greater than 80% in the presence of 1000 nM of the compound)	–	–
Cc1ccc(-c2nc3ccc(C)cn3c2CSc2nncn2C)cc1 [Compound 176, 3-((4-methyl-4H-1,2,4-triazol-3-ylthio)methyl)-6-methyl-2-p-tolylH-imidazo[1,2-a]pyridine]	++ (percentage of inhibition of central BZD site binding is greater than 80% in the presence of 1000 nM of the compound)	–	–
Cc1ccc(-c2nc3ccc(C)cn3c2CN2C(=O)CN(C)C2=O)cc1 [Compound 102, 1-methyl-3-((6-methyl-2-p-tolylH-imidazo[1,2-a]pyridin-3-yl)methyl)imidazolidine-2,4-dione]	+ (percentage of inhibition of central BZD site binding is greater than 50% but less than 80% in the presence of 1000 nM of the compound)	–	–
Cc1ccc(-c2nc3ccc(C)cn3c2CNn2c(C)nc3ccccc3c2=O)cc1 [Compound 155, 2-Methyl-3-[(6-methyl-2-p-tolyl-imidazo[1,2-a]pyridin-3-ylmethyl)-amino]-3H-quinazolin-4-one]	+ (percentage of inhibition of central BZD site binding is greater than 50% but less than 80% in the presence of 1000 nM of the compound)	–	–
CCOC(=O)c1cc(-c2ccco2)nn1Cc1c(-c2ccc(Cl)cc2)nc2ccccn12 [Compound 31, Ethyl 1-((2-(4-chlorophenyl)imidazo[1,2-a]pyridin-3-yl)methyl)-3-(furan-2-yl)-1H-pyrazole-5-carboxylate]	+ (percentage of inhibition of central BZD site binding is greater than 50% but less than 80% in the presence of 1000 nM of the compound)	–	–
CCOC(=O)c1nccn1Cc1c(-c2ccc(C)cc2)nc2ccc(C)cn12 [Compound 12, 1-(6-Methyl-2-p-tolyl-imidazo[1,2-a]pyridin-3-ylmethyl)-1H-imidazole-2-carboxylic acid ethyl ester]	++ (percentage of inhibition of central BZD site binding is greater than 80% in the presence of 1000 nM of the compound)	–	–
Cc1cccn(Cc2c(-c3ccc(Cl)cc3)nc3ccc(Cl)cn23)c1=O [Compound 109, 1-((6-chloro-2-(4-chlorophenyl)H-imidazo[1,2-a]pyridin-3-yl)methyl)-3-methylpyridin-2(1H)-one]	++ (percentage of inhibition of central BZD site binding is greater than 80% in the presence of 1000 nM of the compound)	–	–
Cc1ccc(-c2nc3ccc(C)cn3c2CNc2cc(C)ns2)cc1 [Compound 151, 3-methyl-N-((6-methyl-2-p-tolylH-imidazo[1,2-a]pyridin-3-yl)methyl)isothiazol-5-amine]	++ (percentage of inhibition of central BZD site binding is greater than 80% in the presence of 1000 nM of the compound)	–	–
COC(=O)c1ncnn1Cc1c(-c2ccc(Cl)cc2)nc2ccccn12 [Compound 24, 2-[2-(4-Chloro-phenyl)-imidazo[1,2-a]pyridin-3-ylmethyl]-2H-[1,2,4]triazole-3-carboxylic acid methyl ester]	++ (percentage of inhibition of central BZD site binding is greater than 80% in the presence of 1000 nM of the compound)	–	–
Cc1ccc(-c2nc3ccc(C)cn3c2CNc2nccc(C)n2)cc1 [Compound 143, 4-methyl-N-((6-methyl-2-p-tolylH-imidazo[1,2-a]pyridin-3-yl)methyl)pyrimidin-2-amine]	++ (percentage of inhibition of central BZD site binding is greater than 80% in the presence of 1000 nM of the compound)	–	–
Cc1ccnc(NCc2c(-c3ccc(Cl)cc3)nc3ccccn23)n1 [Compound 157, [2-(4-Chloro-phenyl)-imidazo[1,2-a]pyridin-3-ylmethyl]-(4-methyl-pyrimidin-2-yl)-amine]	++ (percentage of inhibition of central BZD site binding is greater than 80% in the presence of 1000 nM of the compound)	10 to 50%	–
